Measured values: ChEMBL document CHEMBL1201862, “PubChem BioAssay data set” (2004)
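Results reflect a 48-hour exposure of cells in 96-well plates to compound at five concentrations. The concentration for 50% growth inhibition is given as GI50.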 Active and inactive are the calls of the source. No stated cut-off is given here; in the data, active = GI50 up to about 1.1 µM and inactive = higher.

How the values were obtained:
Assay in all cases: growth of human tumour cells (NCI), 48 h
786-0 = tested on: 786-0
ACHN = tested on: ACHN
CAKI-1 = tested on: CAKI-1
DMS-114 = tested on: DMS-114
HCC 2998 = tested on: HCC 2998
HCT-116 = tested on: HCT-116
HOP-92 = tested on: HOP-92
K562 = tested on: K562
LXFL 529 = tested on: LXFL 529
MOLT-4 = tested on: MOLT-4
OVCAR-5 = tested on: OVCAR-5
OVCAR-8 = tested on: OVCAR-8
RPMI-8226 = tested on: RPMI-8226
RXF 393 = tested on: RXF 393
SNB-19 = tested on: SNB-19
SR = tested on: SR
TK-10 = tested on: TK-10
BT-549 = tested on: BT-549
MDA-MB-435 = tested on: MDA-MB-435
PC-3 = tested on: PC-3

Row | SMILES | GI50 (786-0) | GI50 (ACHN) | GI50 (CAKI-1) | GI50 (DMS-114) | GI50 (HCC 2998) | GI50 (HCT-116) | GI50 (HOP-92) | GI50 (K562) | GI50 (LXFL 529) | GI50 (MOLT-4) | GI50 (OVCAR-5) | GI50 (OVCAR-8) | GI50 (RPMI-8226) | GI50 (RXF 393) | GI50 (SNB-19) | GI50 (SR) | GI50 (TK-10) | GI50 (BT-549) | GI50 (MDA-MB-435) | GI50 (PC-3)
1 | CC1CCCc2c(CC3CC(=O)NC(=O)C3)n[nH]c21 (stereo not given) | > 100 µM (inactive) | > 100 µM (inactive) | > 100 µM (inactive) | > 100 µM (inactive) | > 100 µM (inactive) | > 100 µM (inactive) | > 100 µM (inactive) | > 100 µM (inactive) | > 100 µM (inactive) | > 100 µM (inactive) | > 100 µM (inactive) | > 100 µM (inactive) | > 100 µM (inactive) | > 100 µM (inactive) | > 100 µM (inactive) | > 100 µM (inactive) | > 100 µM (inactive) |  |  | 
2 | O=C1OC(c2ccccc2)=N/C1=C/NC(CS)C(=O)O (stereo not given) | > 100 µM (inactive) | > 100 µM (inactive) |  | > 100 µM (inactive) | > 100 µM (inactive) | > 100 µM (inactive) | > 100 µM (inactive) | > 100 µM (inactive) | > 100 µM (inactive) | > 100 µM (inactive) | > 100 µM (inactive) | > 100 µM (inactive) | > 100 µM (inactive) | > 100 µM (inactive) | > 100 µM (inactive) | > 100 µM (inactive) | > 100 µM (inactive) |  |  | 
3 | O=[N+]([O-])c1ccc(/C(Cl)=C/c2ccc(/C=C(\Cl)c3ccc([N+](=O)[O-])cc3[N+](=O)[O-])cc2)c([N+](=O)[O-])c1 | > 100 µM (inactive) | > 100 µM (inactive) | > 100 µM (inactive) | > 100 µM (inactive) | > 100 µM (inactive) | > 100 µM (inactive) | > 100 µM (inactive) |  | > 100 µM (inactive) | > 100 µM (inactive) | > 100 µM (inactive) | > 100 µM (inactive) | > 100 µM (inactive) | > 100 µM (inactive) |  | > 100 µM (inactive) | > 100 µM (inactive) |  |  | 
4 | C/C(=N\N)C(CN1CCCCC1)C(c1ccccc1)c1c(O)c2ccccc2oc1=O (stereo not given) | > 100 µM (inactive) | > 100 µM (inactive) | > 100 µM (inactive) | > 100 µM (inactive) | > 100 µM (inactive) | > 100 µM (inactive) | 67 µM (inactive) | > 100 µM (inactive) | > 100 µM (inactive) | > 69.2 µM (inactive) | > 100 µM (inactive) | > 100 µM (inactive) | > 100 µM (inactive) | > 54.1 µM (inactive) | > 100 µM (inactive) | > 100 µM (inactive) | > 100 µM (inactive) | > 100 µM (inactive) | > 100 µM (inactive) | > 100 µM (inactive)
5 | COc1cc(Nc2nc3cc(C(F)(F)F)ccc3nc2C)cc(OC)c1OC | 12.2 µM (inactive) | 8.11 µM (inactive) | 7.11 µM (inactive) | 11.2 µM (inactive) | 3.61 µM (inactive) | 8.81 µM (inactive) | 0.246 µM (active) | 5.52 µM (inactive) | 9.91 µM (inactive) | 6.95 µM (inactive) | 13.3 µM (inactive) | 11 µM (inactive) |  | 5.46 µM (inactive) |  | 6.15 µM (inactive) | 10.7 µM (inactive) |  |  | 
6 | CCCCCNC(=O)CCCCCCCCCCCNC(=O)CCCCCCCCCCN1C=CC(=CC=C2C=CC(=O)C=C2)C=C1 | > 100 µM (inactive) | > 100 µM (inactive) | > 100 µM (inactive) | 12.6 µM (inactive) | 32.7 µM (inactive) | > 100 µM (inactive) | 14.7 µM (inactive) | 21.2 µM (inactive) | 5.86 µM (inactive) | 29 µM (inactive) | > 100 µM (inactive) | 55.7 µM (inactive) | 8.99 µM (inactive) | > 100 µM (inactive) | 34.8 µM (inactive) | 6.64 µM (inactive) | > 10 µM (inactive) |  |  | 
7 | CC[C@@]1(OC(=O)C(N)CCC(=O)O)C(=O)OCc2c1cc1n(c2=O)Cc2cc3ccccc3nc2-1 (stereo not given in full) | 0.0206 µM (active) | 0.0187 µM (active) | < 0.0182 µM (active) | 0.0493 µM (active) | 0.461 µM (active) | 0.122 µM (active) | 0.615 µM (active) | 0.314 µM (active) | 1.38 µM (inactive) | 0.0106 µM (active) | 0.248 µM (active) | 0.117 µM (active) | 0.148 µM (active) | 0.147 µM (active) | 0.0541 µM (active) |  | 4.33 µM (inactive) | 0.733 µM (active) | 0.219 µM (active) | 0.194 µM (active)
8 | C/C(=N\NC(N)=S)c1cc(C)c(C)cc1C | 93.8 µM (inactive) | > 100 µM (inactive) | > 100 µM (inactive) | 21 µM (inactive) | 52.5 µM (inactive) | > 100 µM (inactive) | > 100 µM (inactive) | 40.3 µM (inactive) | 27.7 µM (inactive) | 20.2 µM (inactive) | 20.1 µM (inactive) | > 100 µM (inactive) | 31.3 µM (inactive) | 29 µM (inactive) |  | 37 µM (inactive) | 89.5 µM (inactive) |  |  | 
9 | O=C1C(c2ccccc2)=C(O)c2cccc3cccc1c23 | > 100 µM (inactive) | > 100 µM (inactive) | > 100 µM (inactive) | > 100 µM (inactive) | > 100 µM (inactive) | > 100 µM (inactive) | 29 µM (inactive) | > 100 µM (inactive) | > 100 µM (inactive) | > 100 µM (inactive) | > 100 µM (inactive) | > 100 µM (inactive) | > 100 µM (inactive) | > 100 µM (inactive) | > 100 µM (inactive) | > 100 µM (inactive) | > 100 µM (inactive) |  |  | 
10 | O=C(NC1C(=O)NNC1c1ccccc1Cl)c1ccccc1 (stereo not given) | > 100 µM (inactive) | > 100 µM (inactive) | > 100 µM (inactive) | > 100 µM (inactive) | > 100 µM (inactive) | > 100 µM (inactive) | > 100 µM (inactive) | 39.4 µM (inactive) | > 100 µM (inactive) | 64.4 µM (inactive) | > 100 µM (inactive) | > 100 µM (inactive) | 82.2 µM (inactive) | > 100 µM (inactive) | > 100 µM (inactive) | 42.2 µM (inactive) | > 100 µM (inactive) |  |  | 
11 | CCN(CC)CC1CCCCN1CC(=O)N1CC(C)C(=O)Nc2ccccc21 (stereo not given) | > 100 µM (inactive) | > 100 µM (inactive) | > 100 µM (inactive) | > 100 µM (inactive) | > 100 µM (inactive) | > 100 µM (inactive) | > 100 µM (inactive) | > 100 µM (inactive) | > 100 µM (inactive) | > 100 µM (inactive) | > 100 µM (inactive) |  | > 100 µM (inactive) |  | > 100 µM (inactive) | > 100 µM (inactive) |  |  |  | 
12 | COC(=O)c1c(C)cc2c(c1O)C1(O)C(=O)c3cc4c(c(O)c3C(=O)C1(OC)C(O)C2)C(=O)C=C(NC1OC(C)C(OC)C(O)C1OC)C4=O (stereo not given) | 0.0753 µM (active) | 0.0681 µM (active) | 0.225 µM (active) | 0.0104 µM (active) | 0.138 µM (active) | 0.0378 µM (active) | 0.26 µM (active) | 0.0204 µM (active) | 0.0679 µM (active) | 0.0208 µM (active) | 0.205 µM (active) | 0.0695 µM (active) | 0.0157 µM (active) | 0.0161 µM (active) | 0.159 µM (active) | 0.0405 µM (active) | 0.114 µM (active) |  |  | 
13 | Cc1cc(N(CCC#N)CCC#N)ccc1/C=C(\NC(=O)/C=C/c1ccccc1)C(=O)NN | 30.6 µM (inactive) | > 80.9 µM (inactive) | > 100 µM (inactive) | > 100 µM (inactive) | > 100 µM (inactive) | 99.1 µM (inactive) | 20.3 µM (inactive) | > 100 µM (inactive) | > 100 µM (inactive) | > 100 µM (inactive) | > 100 µM (inactive) | > 54.1 µM (inactive) | > 100 µM (inactive) | > 57.3 µM (inactive) | > 40.9 µM (inactive) | > 100 µM (inactive) | > 51.3 µM (inactive) | 25.6 µM (inactive) | > 100 µM (inactive) | > 100 µM (inactive)
14 | C#C[C@]1(O)CC[C@H]2[C@@H]3CCc4cc(O)ccc4[C@H]3CC[C@@]21C [ETHINYL ESTRADIOL] | 34.6 µM (inactive) | 78.7 µM (inactive) | 52.6 µM (inactive) | 16.3 µM (inactive) | 18.3 µM (inactive) | 23 µM (inactive) | 22.9 µM (inactive) |  | 21.5 µM (inactive) | 18.6 µM (inactive) | 85.3 µM (inactive) | 30.2 µM (inactive) |  | 29 µM (inactive) | 68.5 µM (inactive) | 16.7 µM (inactive) | 43.9 µM (inactive) |  |  | 
